Experimental data reported in ChEMBL document CHEMBL3616395, “Discovery of 4-arylamido 3-methyl isoxazole derivatives as novel FMS kinase inhibitors” (Eur J Med Chem, 2015).
Active and inactive are the calls of the source. The calls are words filed in the database; no cut-off is given here.

How the values were obtained:
U-937 = test: Antiproliferative activity against human U937 cells after 24 hrs by MTT assay; format: functional; details: U-937, 24 h
A375P = test: Antiproliferative activity against human A375P cells after 24 hrs by MTT assay; format: functional, cell-based
[1] = Cytotoxicity against human HS27 cells after 24 hrs by MTT assay; format: cell-based

| Structure (SMILES) | GI50 (U-937) [µM] | Activity (A375P) | GI50 at 24 h [1] [µM] |
| --- | --- | --- | --- |
| Cc1cc(NC(=O)Nc2cc(Cl)cc(Cl)c2)ccc1NC(=O)c1cnoc1C | > 30 | inactive | > 30 |
| Cc1ccc(NC(=O)C2(C)CCc3c(C)c(O)c(C)c(C)c3O2)cc1NC(=O)c1cnoc1C (stereo unspecified) | > 30 | inactive | > 30 |
| Cc1ccc(NC(=O)c2ccccc2Sc2ccccc2C#N)cc1NC(=O)c1cnoc1C | > 30 | inactive | > 30 |
| Cc1cc(C)cc(C(=O)Nc2ccc(C)c(NC(=O)c3cnoc3C)c2)c1 | 3.1 | inactive | > 30 |
| Cc1ccc(NC(=O)c2cnn(-c3ccccc3)c2C(F)(F)F)cc1NC(=O)c1cnoc1C | 0.139 | inactive | > 30 |
| Cc1ccc(NC(=O)c2cc(-n3cncc3C)cc(C(F)(F)F)c2)cc1NC(=O)c1cnoc1C | 0.026 | inactive | > 30 |
| Cc1cc(NC(=O)c2cc(N3CCN(C)CC3)cc(C(F)(F)F)c2)ccc1NC(=O)c1cnoc1C | > 30 | inactive | > 30 |
| Cc1cc(NC(=O)Nc2ccc(Cl)c(Cl)c2)ccc1NC(=O)c1cnoc1C | > 30 | inactive | > 30 |
| CCCS(=O)(=O)Nc1ccc(C)c(NC(=O)c2cnoc2C)c1 | > 30 | inactive | > 30 |
| Cc1ccc(NC(=O)c2ccc(-c3ccccc3)cc2)cc1NC(=O)c1cnoc1C | > 30 | inactive | > 30 |
| Cc1ccc(NC(=O)Nc2ccc(Cl)c(Cl)c2)cc1NC(=O)c1cnoc1C | 1.89 | inactive | > 30 |
| Cc1cc(NC(=O)Nc2ccc(Cl)cc2)ccc1NC(=O)c1cnoc1C | > 30 | inactive | > 30 |
| Cc1ccc(NC(=O)Cc2ccc(-c3ccccc3)cc2)cc1NC(=O)c1cnoc1C | > 30 | inactive | > 30 |
| Cc1cn(-c2cc(C(=O)Nc3ccc(C)c(NC(=O)c4cnoc4C)c3)cc(C(F)(F)F)c2)cn1 | 0.049 | inactive | > 30 |
| Cc1ccc(NC(=O)Nc2ccc(Cl)cc2)cc1NC(=O)c1cnoc1C | > 30 | inactive | > 30 |
| Cc1ccc(NC(=O)c2ccc(Cl)c(C(F)(F)F)c2)cc1NC(=O)c1cnoc1C | > 30 | inactive | > 30 |
| Cc1ccc(NC(=O)c2ccc(N3CCOCC3)c(C(F)(F)F)c2)cc1NC(=O)c1cnoc1C | 0.465 | inactive | > 30 |
